{"source": "patent US10898483B2", "about": "“Methods for inducing an immune response by promoting premature termination codon read-through” (MOONSHOT PHARMA LLC, priority 2015, dated 2021)", "key": {"[1]": {"settings": "phase-I clinical study in cystic fibrosis; cited from earlier work"}, "normal stop codons": {"test_system": "normal stop codons", "settings": "cited from earlier work"}, "[2]": {"test_system": "CD3+ immune cells infiltrating tumor tissue", "assay": "Immunohistochemistry of sectioned tumor tissue for immune cell infiltration", "type": "in vivo, C57BL/6 mice", "settings": "FIG. 4", "protocol": "Immunohistochemistry (IHC): Formalin-fixed paraffin-embedded (FFPE) tissue from tumor samples were sectioned to 4 um. Antigen retrieval (AR) was conducted at 100° C., in EDTA buffer, at pH 9.0 for 20 min. Primary antibody (diluted with validated concentration), RT 60 min+ secondary antibody (ready-to-use), RT 60 min+Bond Polymer Refine Detection."}, "MC38 tumor cells": {"test_system": "MC38 tumor cells", "assay": "MC38 subcutaneous tumor model in C57BL/6 mice, tumor volume by caliper", "type": "in vivo", "design": "Percent inhibition of tumor volume: concentration or dose not given beside the values", "settings": "for Percent inhibition of tumor volume: negative values indicate an increase in tumor volume; for Mean tumor volume: PTC124 20 mg/kg i.p. QD, antibodies 10 mg/kg (anti-CD8 200 ug/mouse) BIW x 3 weeks", "protocol": "Animals: Female 6-8 week old (estimated age at inoculation) C57BL/6 mice were obtained from Shanghai Lingchang Bio-Technology Co. Ltd (LC, Shanghai, China). The animals were housed at 20˜26° C. with a 12 hours light and 12 hours darkness cycle.\nCell Culture: MC38 tumor cells were maintained in vitro as a monolayer culture in DMEM medium supplemented with 10% fetal bovine serum at 37° C. in an atmosphere of 5% CO2 in air. The tumor cells were routinely subcultured twice weekly. Cells in an exponential growth phase were harvested and counted for tumor inoculation.\nTherapeutic compounds: Ataluren (PTC124) was obtained from Selleck Chemicals (Houston, Tex.). Anti-PD-1 and anti-CTLA-4 antibodies were obtained from BioXCell as was an anti-CD8 antibody.\nTumor Inoculation: Each mouse was inoculated subcutaneously at the right lower flank region with MC38 tumor cells (1×10^6) in 0.1 mL of PBS for tumor development. The treatments were started when the mean tumor size reaches approximately 50 mm^3. The date of tumor cell inoculation was denoted as day 0.\nGroup assignment: Before grouping and treatment, all animals were weighed and the tumor volumes measured using a caliper. Tumor volume was used as numeric parameter to randomize selected animals into specified groups in order to minimize systematic error. The grouping was performed by using StudyDirector™ software (Studylog Systems, Inc. CA, USA). One optimal randomization design (generated by Matched distribution) showing minimal group to group variation in tumor volume was selected for group allocation.\nAfter tumor cell inoculation, the animals were checked daily for morbidity and mortality as well as any effects of tumor growth and treatments on normal behavior such as mobility, visual estimation of food and water consumption, body weight gain/loss, eye/hair matting and any other abnormal effect. Tumor volumes were measured twice weekly at least in two dimensions using a caliper, and the volume expressed in mm^3 using the formula: V=0.5 a×b^2 where a and b are the long and short diameters of the tumor, respectively."}, "[3]": {"test_system": "intratumoral T-cell infiltrates (CD45+, CD3+, CD8+, and CD4+ cells)", "assay": "FACS analysis for intratumoral T-cell infiltrates", "type": "in vivo, C57BL/6 mice", "settings": "FIG. 5", "protocol": "FACS analysis: Tumor cells were isolated from each treatment group and FACS analysis performed according to methods which are well known in the art."}}, "data": [{"smiles": "O=C(O)c1cccc(-c2noc(-c3ccccc3F)n2)c1", "note": "[PTC124, 3-[5-(2-Fluorophenyl)-1,2,4-oxadiazol-3-yl]benzoic acid]", "values": [{"measurement": "Read-through activity compared with aminoglycosides", "setting": "[1]", "result": "more efficient read-through activity than aminoglycosides"}, {"measurement": "Tolerability", "setting": "[1]", "result": "generally well tolerated"}, {"measurement": "Ribosomal read-through of normal stop codons", "setting": "normal stop codons", "result": "does not induce ribosomal read-through of normal stop codons"}, {"measurement": "CD3+ immune cells infiltrating tumor tissue (immunohistochemical analysis)", "setting": "[2]", "result": "significant numbers of CD3+ immune cells infiltrating tumor tissue"}, {"measurement": "Percent inhibition of tumor volume", "setting": "MC38 tumor cells; Day 9", "result": "−0.96", "unit": "%"}, {"measurement": "Mean tumor volume", "setting": "MC38 tumor cells; Day 9 after inoculation (randomization)", "result": 52.46, "unit": "mm^3"}, {"measurement": "Mean tumor volume", "setting": "MC38 tumor cells; Day 12", "result": 72.34, "unit": "mm^3"}, {"measurement": "Percent inhibition of tumor volume", "setting": "MC38 tumor cells; Day 12", "result": 13.94, "unit": "%"}, {"measurement": "Mean tumor volume", "setting": "MC38 tumor cells; Day 15", "result": 128.58, "unit": "mm^3"}, {"measurement": "Percent inhibition of tumor volume", "setting": "MC38 tumor cells; Day 15", "result": 1.20, "unit": "%"}, {"measurement": "Mean tumor volume", "setting": "MC38 tumor cells; Day 18", "result": 231.26, "unit": "mm^3"}, {"measurement": "Percent inhibition of tumor volume", "setting": "MC38 tumor cells; Day 18", "result": 19.87, "unit": "%"}, {"measurement": "Mean tumor volume", "setting": "MC38 tumor cells; Day 22", "result": 388.94, "unit": "mm^3"}, {"measurement": "Percent inhibition of tumor volume", "setting": "MC38 tumor cells; Day 22", "result": 18.64, "unit": "%"}, {"measurement": "Mean tumor volume", "setting": "MC38 tumor cells; Day 25", "result": 617.86, "unit": "mm^3"}, {"measurement": "Percent inhibition of tumor volume", "setting": "MC38 tumor cells; Day 25", "result": 22.82, "unit": "%"}, {"measurement": "Mean tumor volume", "setting": "MC38 tumor cells; Day 29", "result": 988.37, "unit": "mm^3"}, {"measurement": "Percent inhibition of tumor volume", "setting": "MC38 tumor cells; Day 29", "result": 21.47, "unit": "%"}, {"measurement": "Mean tumor volume", "setting": "MC38 tumor cells; Day 32", "result": 1459.49, "unit": "mm^3"}, {"measurement": "Percent inhibition of tumor volume", "setting": "MC38 tumor cells; Day 32", "result": 18.16, "unit": "%"}, {"measurement": "Tumor inhibition (in words)", "setting": "MC38 tumor cells; MC38 tumor-bearing C57BL/6 mice, Table 6, FIGS. 1-3", "result": "has tumor inhibition-promoting properties"}, {"measurement": "Intratumoral T-cell infiltrates (CD45+, CD3+, CD8+, and CD4+ cells) by FACS", "setting": "[3]", "result": "increased intratumoral T-cell infiltrates"}]}]}
